Data as given in patent publication US20240336559A1, “ANTI-FUNGALS COMPOUNDS TARGETING THE SYNTHESIS OF FUNGAL SPHINGOLIPIDS” (The Research Foundation for the State University of New York, priority 2021, published 2024).
Converted amounts (≈) assume the structure as drawn. Like-named read-outs stand apart in the source and are kept apart here.

Key:
[1] = system: synthesis of sphingolipid GlcCer in C. neoformans; details: in words, 'It was known'; cited from earlier work
C. neoformans = assay: Antifungal activity assay (MIC80), C. neoformans; assay type: cell-based; details: Cryptococcus neoformans
Experimental: (§1) MICs were determined following the methods of the Clinical and Laboratory Standards Institutes (CLSI) with modifications. Yeast nitrogen base (YNB) medium without amino acid (pH 7.0, 2% glucose) buffered with (4-(2-hydroxyethyl)-1-piperazineethanesulfonic acid) (HEPES) was used for MIC studies in C. neoformans. YNB medium without ammonium sulfate, without amino acid and 1% asparagine (pH 7.0, 2% glucose) was used for MIC studies in Candida strains. RPMI medium (pH 7.0, 2% glucose) was used for MIC studies in A. fumigatus. […] The compounds were serially diluted from 32 to 0.03 μg/mL, in a 96-well plate. The inoculum was prepared as described in the CLSI protocol M27A3 guidelines. The plates were incubated at 37° C. with 5% CO2 for 24 to 72 h and the optical density was measure at 450 nm. The MICs were determined as the lowest concentration of the compound that inhibited 80% of growth compared to the control.
MICs was determined following the methods of the Clinical and Laboratory Standards Institutes (CLSI) with modifications. Yeast Nitrogen Base (YNB) medium (pH 7.0, 0.2% glucose) buffered with HEPES was used for MIC studies. […] The compound was serially diluted from 16 to 0.03 μg/ml, in a 96-well plate. The inoculum was prepared as described in the CLSI protocol M27A3 guidelines. The plates were incubated at 37° C. with 5% CO2 for 24 to 72 h and the optical density was measure at 450 nm. The MICs was determined as the lowest concentration of the compound that inhibited 80% of growth compared to the control.

C. albicans = assay: Antifungal activity assay (MIC80), C. albicans; assay type: cell-based; details: Candida albicans; lowest concentration inhibiting 80% of growth; YNB pH 7.0, 37° C., 5% CO2, 24 to 72 h
Experimental: as §1

A. fumigatus = assay: Antifungal activity assay (MIC80), A. fumigatus; assay type: cell-based; details: Aspergillus fumigatus; lowest concentration inhibiting 80% of growth; RPMI pH 7.0, 37° C., 5% CO2, 24 to 72 h
Experimental: as §1

[2] = system: C. neoformans, C. albicans, A. fumigatus; assay: Broad spectrum in vitro antifungal activity; assay type: cell-based; details: in words
Experimental: as §1

[3] = lowest concentration inhibiting 80% of growth, YNB pH 7.0 HEPES, 37° C., 5% CO2, 24 to 72 h, read-out: MIC80 C. neoformans

| Compound | MIC80 (C. neoformans; [3]) | MIC80 (C. albicans) | MIC80 (A. fumigatus) | melting point | also measured |
| --- | --- | --- | --- | --- | --- |
| Cc1ccccc1C(=O)N/N=C/c1ccc(O)c(Br)c1 [BHBM] | – | – | – | – | antifungal activities by inhibiting the synthesis of sphingolipid GlcCer [1]: potent antifungal activities |
| C#Cc1ccc(O)c(/C=N/NC(=O)c2ccc(Br)cc2Br)c1 [SB-AF-08-23, 2,4-Dibromo-N′-(5-ethynyl-2-hydroxybenzylidene)benzohydrazide] | 0.03 µg/mL (≈ 0.0711 µM) | ≤ 0.01 µg/mL | 2 µg/mL (≈ 4.74 µM) | – | – |
| C#Cc1ccc(/C=N/NC(=O)c2ccc(Br)cc2Br)c(O)c1 [SB-AF-08-27, 2,4-Dibromo-N′-(4-ethynyl-2-hydroxybenzylidene)benzohydrazide] | 0.03 µg/mL (≈ 0.0711 µM) | 0.12 µg/mL (≈ 0.284 µM) | 0.5 µg/mL (≈ 1.18 µM) | – | in vitro broad-spectrum antifungal activity [2]: excellent in vitro broad-spectrum activity |
| C#Cc1cccc(O)c1/C=N/NC(=O)c1ccc(Br)cc1Br [SB-AF-08-29, 2,4-Dibromo-N′-(2-ethynyl-6-hydroxybenzylidene)benzohydrazide] | 0.031 µg/mL (≈ 0.0734 µM) | 0.5 µg/mL (≈ 1.18 µM) | > 32 µg/mL | – | – |
| C#Cc1ccc(O)c(/C=N/NC(=O)c2ccc(Br)cc2)c1 [SB-AF-10-23, 4-Bromo-N′-(5-ethynyl-2-hydroxybenzylidene) benzohydrazide] | 0.007 µg/mL (≈ 0.0204 µM) | 0.06 µg/mL (≈ 0.175 µM) | 2 µg/mL (≈ 5.83 µM) | – | – |
| C#Cc1ccc(/C=N/NC(=O)c2ccc(Br)cc2)c(O)c1 [SB-AF-10-27, 4-Bromo-N′-(4-ethynyl-2-hydroxybenzylidene)benzohydrazide] | 0.03 µg/mL (≈ 0.0874 µM) | 4 µg/mL (≈ 11.7 µM) | > 16 µg/mL | – | – |
| C#Cc1cccc(/C=N/NC(=O)c2ccc(Br)cc2)c1O [SB-AF-10-28, 4-Bromo-N′-(3-ethynyl-2-hydroxybenzylidene)benzohydrazide] | 0.007 µg/mL (≈ 0.0204 µM) | 2 µg/mL (≈ 5.83 µM) | 4 µg/mL (≈ 11.7 µM) | – | – |
| C#Cc1cccc(O)c1/C=N/NC(=O)c1ccc(Br)cc1 [SB-AF-10-29, 4-Bromo-N-(2-ethynyl-6-hydroxybenzylidene)benzohydrazide] | – | 8 µg/mL (≈ 23.3 µM) | > 32 µg/mL | – | MIC80 (C. neoformans; pH 7, read-out: MIC80 C. neoformans): 0.125 µg/mL (≈ 0.364 µM) |
| C#Cc1ccc(O)c(/C=N/NC(=O)c2cc(Br)cc(Br)c2O)c1 [SB-AF-12-23, 2-Hydroxy-3,5-dibromo-N-(5-ethynyl-2-hydroxybenzylidene)benzohydrazide] | 0.03 µg/mL (≈ 0.0685 µM) | 0.12 µg/mL (≈ 0.274 µM) | 4 µg/mL (≈ 9.13 µM) | – | – |
| C#Cc1ccc(/C=N/NC(=O)c2cc(Br)cc(Br)c2O)c(O)c1 [SB-AF-12-27, 3,5-Dibromo-N′-(4-ethynyl-2-hydroxybenzylidene)-2-hydroxybenzohydrazide] | 0.03 µg/mL (≈ 0.0685 µM) | 2 µg/mL (≈ 4.57 µM) | > 16 µg/mL | – | – |
| C#Cc1ccc(O)c(/C=N/NC(=O)c2ccc(Br)c(Br)c2)c1 [SB-AF-13-23, 3,4-Dibromo-N′-(5-ethynyl-2-hydroxybenzylidene)benzohydrazide] | 0.06 µg/mL (≈ 0.142 µM) | 0.5 µg/mL (≈ 1.18 µM) | 2 µg/mL (≈ 4.74 µM) | – | – |
| C#Cc1ccc(/C=N/NC(=O)c2ccc(Br)c(Br)c2)c(O)c1 [SB-AF-13-27, 3,4-Dibromo-N′-(4-ethynyl-2-hydroxybenzylidene)benzohydrazide] | 0.007 µg/mL (≈ 0.0166 µM) | 8 µg/mL (≈ 19 µM) | > 16 µg/mL | – | – |
| C#Cc1cccc(/C=N/NC(=O)c2ccc(Br)c(Br)c2)c1O [SB-AF-13-28, 3,4-Dibromo-N′-(3-ethynyl-2-hydroxybenzylidene)benzohydrazide] | 0.015 µg/mL (≈ 0.0355 µM) | 4 µg/mL (≈ 9.48 µM) | 1 µg/mL (≈ 2.37 µM) | – | – |
| C#Cc1cccc(O)c1/C=N/NC(=O)c1ccc(Br)c(Br)c1 [SB-AF-13-29, 3,4-Dibromo-N′-(2-ethynyl-6-hydroxybenzylidene)benzohydrazide] | 0.06 µg/mL (≈ 0.142 µM) | 16 µg/mL (≈ 37.9 µM) | 8 µg/mL (≈ 19 µM) | – | – |
| C#Cc1ccc(O)c(/C=N/NC(=O)c2ccc(OC(F)(F)F)cc2F)c1 [SB-AF-25-23, 2-Fluoro-4-(trifluoromethoxy)-N-(5-ethynyl-2-hydroxybenzylidene)benzohydrazide] | 4 µg/mL (≈ 10.9 µM) | – | – | – | – |
| C#Cc1ccc(C(=O)N/N=C/c2ccc(C#C)cc2O)cc1 [SB-AF-36-27, 4-Ethynyl-N′-(4-ethynyl-2-hydroxybenzylidene)benzohydrazide] | 0.007 µg/mL (≈ 0.0243 µM) | 16 µg/mL (≈ 55.5 µM) | > 16 µg/mL | – | – |

| Compound | MIC80 (C. neoformans; [3]) | MIC80 (C. albicans) | MIC80 (A. fumigatus) | melting point | also measured |
| --- | --- | --- | --- | --- | --- |
| COCc1ccc(C(=O)N/N=C/c2ccc(Br)cc2O)cc1 [SB-AF-39-13, 4-Methoxymethyl-N′-(4-bromo-2-hydroxybenzylidene)benzohydrazide] | – | – | – | 198 to 199 °C | – |
| COCc1ccc(C(=O)N/N=C/c2cc(Br)ccc2O)cc1 [SB-AF-39-15, 4-Methoxymethyl-N′-(5-bromo-2-hydroxybenzylidene)benzohydrazide] | – | – | – | 188 to 189 °C | – |
| COCc1ccc(C(=O)N/N=C/c2cccc(Br)c2O)cc1 [SB-AF-39-22, 4-Methoxymethyl-N′-(3-bromo-2-hydroxybenzylidene)benzohydrazide] | – | – | – | 187 to 188 °C | – |
| C#Cc1ccc(O)c(/C=N/NC(=O)c2ccc(COC)cc2)c1 [SB-AF-39-23, 4-Methoxymethyl-N′-(5-ethynyl-2-hydroxybenzylidene)benzohydrazide] | 0.25 µg/mL (≈ 0.811 µM) | – | – | – | – |
| CCOCc1ccc(C(=O)N/N=C/c2cc(Br)cc(Br)c2O)cc1 [SB-AF-40-17, 4-Ethoxymethyl-N′-(3,5-dibromo-2-hydroxybenzylidene)benzohydrazide] | – | – | – | 205 to 207 °C | – |
| CCOCc1ccc(C(=O)N/N=C/c2cccc(Br)c2O)cc1 [SB-AF-40-22, 4-Ethoxymethyl-N′-(3-bromo-2-hydroxybenzylidene)benzohydrazide] | – | – | – | 176 to 177 °C | – |
| C#Cc1ccc(/C=N/NC(=O)c2ccc(COCC)cc2)c(O)c1 [SB-AF-40-27, 4-(Ethoxymethyl)-N′-(4-ethynyl-2-hydroxybenzylidene)benzohydrazide] | 0.031 µg/mL (≈ 0.0962 µM) | 8 µg/mL (≈ 24.8 µM) | – | – | – |
| CC(C)OCc1ccc(C(=O)N/N=C/c2ccc(Br)cc2O)cc1 [SB-AF-41-13, 4-Isopropoxymethyl-N′-(4-bromo-2-hydroxybenzylidene)benzohydrazide] | – | – | – | 193 to 195 °C | – |
| CC(C)OCc1ccc(C(=O)N/N=C/c2cc(Br)ccc2O)cc1 [SB-AF-41-15, 4-Isopropoxymethyl-N′-(5-bromo-2-hydroxybenzylidene)benzohydrazide] | – | – | – | 179 to 181 °C | – |
| CC(C)OCc1ccc(C(=O)N/N=C/c2cc(Br)cc(Br)c2O)cc1 [SB-AF-41-17, 4-Isopropoxymethyl-N′-(3,5-dibromo-2-hydroxybenzylidene)benzohydrazide] | – | – | – | 186 to 187 °C | – |
| C#Cc1ccc(/C=N/NC(=O)c2ccc(COC(C)C)cc2)c(O)c1 [SB-AF-41-27, N′-(4-Ethynyl-2-hydroxybenzylidene)-4-(isopropoxymethyl)benzohydrazide] | ≤ 0.015 µg/mL | > 16 µg/mL | – | – | – |
| C#Cc1ccc(O)c(/C=N/NC(=O)c2ccc(C3(C(F)(F)F)N=N3)cc2)c1 [SB-AF-43-23, 4-(3-(Trifluoromethyl)-3H-diazirin-3-yl)-N′-(5-ethynyl-2-hydroxybenzylidene) benzohydrazide] | 0.007 µg/mL (≈ 0.0188 µM) | 1 µg/mL (≈ 2.69 µM) | 1 µg/mL (≈ 2.69 µM) | – | – |
| CCCOCc1ccc(C(=O)N/N=C/c2cc(Br)ccc2O)cc1 [SB-AF-44-15, 4-Propoxymethyl-N′-(5-bromo-2-hydroxybenzylidene)benzohydrazide] | – | – | – | 175 to 176 °C | – |
| CCCOCc1ccc(C(=O)N/N=C/c2cc(Br)cc(Br)c2O)cc1 [SB-AF-44-17, 4-Propoxymethyl-N′-(3,5-dibromo-2-hydroxybenzylidene)benzohydrazide] | – | – | – | 190 to 192 °C | – |
| C#Cc1ccc(/C=N/NC(=O)c2ccc(COCCC)cc2)c(O)c1 [SB-AF-44-27, N′-(4-Ethynyl-2-hydroxybenzylidene)-4-(propoxymethyl)benzohydrazide] | 0.25 µg/mL (≈ 0.743 µM) | > 16 µg/mL | – | – | – |
| C#Cc1ccc(/C=N/NC(=O)c2ccc(Br)c(O)c2)c(O)c1 [SB-AF-46-27, 4-Bromo-N′-(4-ethynyl-2-hydroxybenzylidene)-3-hydroxybenzohydrazide] | 1 µg/mL (≈ 2.78 µM) | > 16 µg/mL | > 32 µg/mL | – | – |
